Tests used:
PXR(S208W/S247W/C284W) = target: T1, PXR(S208W/S247W/C284W) (Homo sapiens, UniProt O75469, C284W/S208W/S247W); assay: LBP-filled PXR mutant CYP3A4 reporter assay; assay type: cell-based; settings: HepG2, 10 µM, 24 h
T1 construct: expressed in transfected cells; host or cells: HepG2
Description: For testing nuclear receptor selectivity and LBP-filled PXR mutant activation, transient batch transfection was conducted as above, but with HepG2 cells and the following plasmids, with amounts per well of 0.23–0.27 µg pGL4-CYP3A4(-7830Δ7208-364) or pGL3(DR3)3Tk (as reporter for VDR), 0.01 µg pMetLuc2control, and 0.03 µg either CAR1, CAR3, VDR, or PXR(S208W/S247W/C284W) expression plasmids. In addition, 0.03 µg RXRα expression plasmid was added to CAR3 transfections. Metridia luciferase activity was measured from 10 µL of medium supernatant after adding 100 µL Renilla luciferase assay solution.
Figure 5 PXR binding of phenylaminobenzosuberones is indicated by cellular PXR LBD assembly assay and inhibition of LBP-filled PXR mutant (A) Novel compounds induce PXR LBD assembly. […] (B) Effects of novel compounds on LBP-filled PXR mutant. HepG2 cells were transiently transfected with CYP3A4 reporter and expression plasmid encoding PXR(S208W/S247W/C284W) and treated as described above. […] Statistically significant differences are illustrated with asterisks. ** p ˂ 0.01, compared to respective treatments with DMSO analyzed by repeated measures one-way ANOVA with Dunnett’s multiple comparisons test.

[1] = system: 335 wild-type protein kinases; assay: Kinase inhibition profiling, selectivity score; assay type: biochemical
Description: (§1) The analysis was performed by ProQinase (Freiburg, Germany).

PXR = target: T2, PXR (Homo sapiens, UniProt O75469); assay: Competitive radioligand binding assay ([3H]SR12813); design: purchased Eurofins Cerep (contract assay service); settings: 7 concentrations 0.01-10 µM, duplicate; read-out: IC50, inhibition of binding of 3H-labeled SR12813 to PXR
T2 sequence (O75469 1-434): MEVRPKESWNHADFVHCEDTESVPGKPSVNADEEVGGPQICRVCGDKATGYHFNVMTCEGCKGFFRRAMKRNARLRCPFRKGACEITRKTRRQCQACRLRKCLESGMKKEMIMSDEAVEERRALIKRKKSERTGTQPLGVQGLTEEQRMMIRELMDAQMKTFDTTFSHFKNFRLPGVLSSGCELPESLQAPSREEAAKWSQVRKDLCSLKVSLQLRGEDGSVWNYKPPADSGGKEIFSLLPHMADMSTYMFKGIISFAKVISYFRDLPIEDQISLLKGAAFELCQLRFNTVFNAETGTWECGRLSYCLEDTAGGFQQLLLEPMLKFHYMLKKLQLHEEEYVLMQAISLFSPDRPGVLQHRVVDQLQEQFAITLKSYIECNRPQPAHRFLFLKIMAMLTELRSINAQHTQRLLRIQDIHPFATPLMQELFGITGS
Description: The assay was performed by Eurofins Cerep (Celle-Lévescault, France). […] Compound binding was calculated as % inhibition of the binding of the radioactively labeled PXR ligand [3H]SR12813 to recombinant human PXR, as described previously.

p38delta = target: T3, p38delta (Homo sapiens, UniProt O15264); assay: Kinase profiling; assay type: biochemical
T3 construct: purchased ProQinase (Freiburg, Germany)
T3 sequence (O15264 1-365): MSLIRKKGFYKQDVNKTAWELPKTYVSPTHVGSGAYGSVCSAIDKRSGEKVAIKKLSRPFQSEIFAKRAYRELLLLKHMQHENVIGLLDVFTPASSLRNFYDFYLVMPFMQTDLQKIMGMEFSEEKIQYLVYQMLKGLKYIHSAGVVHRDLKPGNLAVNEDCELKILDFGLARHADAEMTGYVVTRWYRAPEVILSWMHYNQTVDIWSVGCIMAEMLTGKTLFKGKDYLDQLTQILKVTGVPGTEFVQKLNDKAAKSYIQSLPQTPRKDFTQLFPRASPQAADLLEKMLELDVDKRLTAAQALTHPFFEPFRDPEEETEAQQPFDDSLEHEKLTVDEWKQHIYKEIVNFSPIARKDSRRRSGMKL
Description: as §1

CDK1/CycA2 = target: T4, CDK1/CycA2 (Homo sapiens, UniProt P06493); assay: Kinase profiling; assay type: biochemical
T4 construct: purchased ProQinase (Freiburg, Germany)
Description: as §1

DAPK1 = target: T5, DAPK1 (Homo sapiens, UniProt P53355); assay: Kinase profiling; assay type: biochemical
T5 construct: purchased ProQinase (Freiburg, Germany)
Description: as §1

AuroraC = target: T6, AuroraC (Homo sapiens, UniProt Q9UQB9); assay: Kinase profiling; assay type: biochemical
T6 construct: purchased ProQinase (Freiburg, Germany)
T6 sequence (Q9UQB9 1-309): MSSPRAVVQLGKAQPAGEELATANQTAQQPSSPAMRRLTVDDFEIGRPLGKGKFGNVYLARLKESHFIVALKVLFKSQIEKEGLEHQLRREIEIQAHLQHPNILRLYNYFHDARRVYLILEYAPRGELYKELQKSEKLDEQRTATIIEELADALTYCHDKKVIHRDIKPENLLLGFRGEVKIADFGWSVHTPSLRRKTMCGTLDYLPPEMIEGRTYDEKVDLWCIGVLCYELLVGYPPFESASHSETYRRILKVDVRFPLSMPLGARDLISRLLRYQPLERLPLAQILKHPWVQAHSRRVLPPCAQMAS
Description: as §1

T4 sequence (P06493 whole entry): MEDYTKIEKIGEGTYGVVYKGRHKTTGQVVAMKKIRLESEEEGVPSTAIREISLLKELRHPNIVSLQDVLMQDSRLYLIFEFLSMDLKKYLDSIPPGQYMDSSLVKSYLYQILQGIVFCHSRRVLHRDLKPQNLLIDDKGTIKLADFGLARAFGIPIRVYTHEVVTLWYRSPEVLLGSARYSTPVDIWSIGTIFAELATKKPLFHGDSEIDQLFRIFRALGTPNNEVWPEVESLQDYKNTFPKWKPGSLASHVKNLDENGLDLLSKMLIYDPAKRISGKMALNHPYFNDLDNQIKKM
T4 sequence (P20248 whole entry partner): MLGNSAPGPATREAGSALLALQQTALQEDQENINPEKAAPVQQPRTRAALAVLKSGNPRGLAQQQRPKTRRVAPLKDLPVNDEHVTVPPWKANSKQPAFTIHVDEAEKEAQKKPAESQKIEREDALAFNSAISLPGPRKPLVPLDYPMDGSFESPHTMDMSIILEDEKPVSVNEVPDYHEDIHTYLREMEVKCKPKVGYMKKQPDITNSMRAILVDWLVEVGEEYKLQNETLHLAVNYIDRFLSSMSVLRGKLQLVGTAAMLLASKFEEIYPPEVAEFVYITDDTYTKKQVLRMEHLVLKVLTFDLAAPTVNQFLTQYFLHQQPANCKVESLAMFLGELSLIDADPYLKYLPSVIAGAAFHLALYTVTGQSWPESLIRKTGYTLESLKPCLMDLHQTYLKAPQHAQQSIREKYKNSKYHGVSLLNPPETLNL
T5 sequence (P53355 whole entry): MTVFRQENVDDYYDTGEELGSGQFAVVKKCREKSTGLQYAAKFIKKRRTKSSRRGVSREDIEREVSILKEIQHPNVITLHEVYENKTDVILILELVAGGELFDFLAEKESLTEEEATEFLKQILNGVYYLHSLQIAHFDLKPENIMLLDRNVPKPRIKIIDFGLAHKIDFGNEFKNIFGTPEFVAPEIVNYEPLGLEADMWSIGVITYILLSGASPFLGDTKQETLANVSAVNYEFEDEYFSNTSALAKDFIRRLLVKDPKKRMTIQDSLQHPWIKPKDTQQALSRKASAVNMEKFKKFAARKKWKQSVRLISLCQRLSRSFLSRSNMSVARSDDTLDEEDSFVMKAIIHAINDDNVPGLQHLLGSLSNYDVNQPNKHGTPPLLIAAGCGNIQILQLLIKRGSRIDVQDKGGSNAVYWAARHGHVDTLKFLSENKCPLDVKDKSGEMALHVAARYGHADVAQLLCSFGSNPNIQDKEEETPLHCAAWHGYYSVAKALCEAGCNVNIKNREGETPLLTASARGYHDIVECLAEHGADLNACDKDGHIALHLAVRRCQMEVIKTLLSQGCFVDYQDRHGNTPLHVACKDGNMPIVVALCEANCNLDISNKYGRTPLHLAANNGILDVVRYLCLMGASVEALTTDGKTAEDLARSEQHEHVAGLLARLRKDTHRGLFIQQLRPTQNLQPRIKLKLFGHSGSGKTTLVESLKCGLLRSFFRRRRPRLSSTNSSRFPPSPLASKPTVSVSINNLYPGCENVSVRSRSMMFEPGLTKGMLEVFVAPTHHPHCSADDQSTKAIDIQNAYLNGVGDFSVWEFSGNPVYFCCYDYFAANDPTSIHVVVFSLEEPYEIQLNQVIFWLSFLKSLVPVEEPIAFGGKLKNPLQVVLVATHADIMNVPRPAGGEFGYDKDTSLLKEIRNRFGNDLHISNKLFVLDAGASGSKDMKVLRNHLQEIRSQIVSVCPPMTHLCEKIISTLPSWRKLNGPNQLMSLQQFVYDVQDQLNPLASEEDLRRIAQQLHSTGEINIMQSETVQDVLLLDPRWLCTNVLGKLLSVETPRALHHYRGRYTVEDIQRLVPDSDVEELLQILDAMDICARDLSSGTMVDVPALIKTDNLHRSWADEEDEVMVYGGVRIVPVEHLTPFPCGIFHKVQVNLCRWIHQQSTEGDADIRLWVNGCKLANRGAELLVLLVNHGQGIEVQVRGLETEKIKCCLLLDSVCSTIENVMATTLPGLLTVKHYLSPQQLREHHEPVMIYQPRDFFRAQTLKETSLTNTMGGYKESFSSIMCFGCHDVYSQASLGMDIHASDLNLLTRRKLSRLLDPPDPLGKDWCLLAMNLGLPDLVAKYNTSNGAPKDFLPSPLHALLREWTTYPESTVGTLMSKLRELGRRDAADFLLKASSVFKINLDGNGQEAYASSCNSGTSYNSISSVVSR
T1 sequence (O75469 whole entry S208W/S247W/C284W): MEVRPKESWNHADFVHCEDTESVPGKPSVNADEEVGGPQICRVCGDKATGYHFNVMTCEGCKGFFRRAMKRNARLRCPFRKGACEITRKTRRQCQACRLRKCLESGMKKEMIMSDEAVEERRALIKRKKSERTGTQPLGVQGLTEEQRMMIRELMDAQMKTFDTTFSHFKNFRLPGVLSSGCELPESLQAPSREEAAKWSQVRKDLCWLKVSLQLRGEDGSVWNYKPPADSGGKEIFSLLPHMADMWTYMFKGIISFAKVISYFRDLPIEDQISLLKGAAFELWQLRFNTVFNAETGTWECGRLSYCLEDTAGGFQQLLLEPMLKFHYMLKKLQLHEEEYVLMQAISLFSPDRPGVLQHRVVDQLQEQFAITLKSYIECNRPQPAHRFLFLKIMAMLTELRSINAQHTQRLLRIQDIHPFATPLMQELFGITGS

Row | Compound | suppression of constitutive activity of LBP-filled PXR mutant (PXR(S208W/S247W/C284W)) | Selectivity Score (< 50 % residual activity) ([1]; 1.0E-05 M) | Selectivity Score (< 50 % residual activity) ([1]; 1.0E-06 M) | IC50 (PXR) [µM] | Residual activity (p38delta; 1.0E-05 M) | Residual activity (p38delta; 1.0E-06 M) | Residual activity (CDK1/CycA2; 1.0E-05 M) | Residual activity (CDK1/CycA2; 1.0E-06 M) | Residual activity (DAPK1; 1.0E-05 M) | Residual activity (DAPK1; 1.0E-06 M) | Residual activity (AuroraC; 1.0E-05 M) | Residual activity (AuroraC; 1.0E-06 M)
1 | Cc1ccc(NC(=O)Cc2ccccc2)cc1Nc1ccc2c(c1)CCCCC2=O [Compound 73] | 40% | – | – | – | – | – | – | – | – | – | – | –
2 | O=C(Cc1ccccc1)Nc1ccc(F)c(Nc2ccc3c(c2)CCCCC3=O)c1 [Compound 100] | did not affect constitutive activity of the PXR mutant | 0.015 | 0.003 | 4.5 | 85 % of control | 93 % of control | 83 % of control | 85 % of control | 110 % of control | 127 % of control | 101 % of control | 110 % of control
3 | O=C(Nc1ccc(F)c(Nc2ccc3c(c2)CCCCC3=O)c1)c1cccc(F)c1 [Compound 109] | – | 0.024 | 0.012 | 2.9 | 98 % of control | 91 % of control | 88 % of control | 86 % of control | 102 % of control | 109 % of control | 101 % of control | 99 % of control
